Results on five compounds are retold here after patent US8716480B2, “7-aryl-1,2,4-triazolo[4,3-a]pyridine derivatives and their use as positive allosteric modulators of mGluR2 receptors” (Janssen Pharmaceuticals, Inc., priority 2009, dated 2014).

Structures are written as SMILES. Where two headings read alike, the source gives them in different places. Marks after values point to notes of the source that are not given here. A value given as a limit tells only on which side of the number the result lay.

One series deals with Male mice (C57BL/6). Nature of the series: Reversal of memantine-induced brain activation ([14C]2DG uptake) in mice. Particulars: for L.A.D. (lowest active dose) for significant (p<0.05) reduction of 2DG uptake in the hippocampus compared to memantine response: mice, s.c., memantine 20 mg/kg s.c. The format is in vivo. The protocol: Reversal of Memantine-Induced Brain Activation in Mice NMDA receptor hypofunction is hypothesized to be involved in schizophrenia.
Autoradiographic assessment of radiolabeled [^14C]-2-deoxyglucose ([^14C]2DG) uptake is commonly used to investigate brain activation. In humans, cerebral blood flow is increased in specific brain regions after administration of a subanaesthetic dose of ketamine.
Male mice (C57BL/6, weight 24-28 g, fasted overnight; n=10 animals per group) were treated with vehicle or test compound (s.c.) in randomized order (t=0 min). Memantine (20 mg/kg, s.c.) was injected 30 min later (t=30 min). At t=45 min, [^14C]2DG (0.16 μCi/g) was administered intraperitoneally (i.p.), followed by a 45 min uptake period. Animals were decapitated (t=90 min), plasma glucose levels measured, the brain removed, rapidly frozen and stored at −20° C. until sectioned. Brain sections were exposed together to a precalibrated [^14C]standard on film, which was developed after four days of exposure. Local tissue [^14C]concentration (nCi/mg tissue equivalent—TEQ-) in each region of interest was determined.
Data was analyzed statistically using a two-way ANOVA analysis followed by post-hoc tests (memantine response versus reversal by the compound). The results are shown in table 5 below, expressed as lowest active dose (L.A.D.) required to exert a statistically significant (p<0.05) reduction of 2DG uptake in the hippocampus compared to memantine response.

Series [1] deals with male NMRI mice. Nature of the series: Phencyclidine (PCP)-induced hyperlocomotion in mice. Conditions: mice, PCP 5 mg/kg s.c., criterion total distance <5500 counts, not marked as oral; for ED50: Mus musculus, read-out: ED50 PCP-Inh. It counts as in vivo. As for the experimental part:
(§1) On the day of experiments, the mice were brought into the procedural room. They were housed individually and allowed to acclimate for at least a half hour prior to testing. Although the studies were conducted during the light cycle (from 8:00 to 16:00 h), the procedure room was only sparsely lit (3 to 30 LUX) to provide better contrast for the video tracking. Local lighting was used for the injection procedures. During each trial, an individual mouse was placed in an open field arena (grey PVC cylinder with a height of 40 cm and a diameter of 22.5 cm). Each arena was placed on an infrared LED (8×8 LEDs)-lit box (white PVC squared box; 40×40 cm^2; height 12.5 cm). Each mouse was placed in the center of the arena and allowed to explore freely for 30 min. After each trial, the arena was cleaned with a wet and subsequently with a dry cleaning cloth. An infrared sensitive tube camera and a white light source (in arena: 4-7 LUX) were mounted to the ceiling above the observation chamber to record and input activity to a computer. Animal behavior was recorded and analyzed using the Noldus Ethovision XT Video Tracking System (Version 3.1; Noldus, Wageningen, The Netherlands). The total distance traveled (cm) was calculated. Data were then exported to data management systems for further analysis and reporting.
Test compound or solvent was administered at a pre-defined time before measurement (standard: 30 min) to male NMRI mice that were challenged with phencyclidine (PCP; 5 mg/kg, s.c.) 30 min before measurement. Activity was measured for a period of 30 min.

The next series has as its target T1, human mGluR2 receptor (Homo sapiens, UniProt Q14416).
T1 construct: expressed in transfected cells; host or cells: CHO cells (membranes)
The series is described as follows: [35S]GTPγS binding assay (PAM). The format is biochemical. Conditions: in presence of glutamate at predetermined EC20, membranes from CHO cells transfected with human mGluR2; for EC50: read-out: GTPγS -hR2 PAM pEC50 (converted). As for the experimental part: [^35S]GTPγS binding assay
The [^35S]GTPγS binding assay is a functional membrane-based assay used to study G-protein coupled receptor (GPCR) function whereby incorporation of a non-hydrolysable form of GTP, [^35S]GTPγS (guanosine 5′-triphosphate, labelled with […] ^35S), is measured.
CHO-cells were cultured to pre-confluence and stimulated with 5 mM butyrate for 24 h, prior to washing in PBS, and then collected by scraping in homogenisation buffer (50 mM Tris-HCl buffer, pH 7.4, 4° C.). Cell lysates were homogenized briefly using an ultra-turrax homogenizer. The homogenate was centrifuged at 16,000 RPM (Sorvall RC-5C plus rotor SS-34) for 10 minutes and the supernatant discarded. The pellet was resuspended in 5 mM Tris-HCl, pH 7.4 and centrifuged again (18,000 RPM, 20 min, 4° C.). The final pellet was resuspended in 50 mM Tris-HCl, pH 7.4 and stored at −80° C. in appropriate aliquots before use. Protein concentration was determined by the Bradford method (Bio-Rad, USA) with bovine serum albumin as standard.
Measurement of mGluR2 positive allosteric modulatory activity of test compounds was performed as follows. Test compounds and glutamate were diluted in assay buffer containing 10 mM HEPES acid, 10 mM HEPES salt, pH 7.4, 100 mM NaCl, 3 mM MgCl2 and 10 μM GDP. Human mGlu2 receptor-containing membranes were thawed on ice and diluted in assay buffer supplemented with 14 μg/ml saponin. Membranes were pre-incubated with compound alone or together with a predefined (˜EC20) concentration of glutamate (PAM assay) for 30 min at 30° C. After addition of [^35S]GTPγS (f.c. 0.1 nM) microplates were shaken briefly and further incubated to allow [^35S]GTPγS incorporation on activation (30 minutes, 30° C.). Final assay mixtures contained 7 μg of membrane protein in 10 mM HEPES acid, 10 mM HEPES salt, pH 7.4, 100 mM NaCl, 3 mM MgCl2, 10 μM GDP and 10 μg/ml saponin. Total reaction volume was […] Reactions were terminated by rapid filtration through Unifilter-96 GF/B filter plates (Packard, Meriden, Conn.) using a 96-well Packard filtermate harvester. Filters were washed 6 times with ice-cold 10 mM NaH2PO4/10 mM Na2HPO4, pH 7.4. Filters were then air-dried, and 40 μl of liquid scintillation cocktail (Microscint-O) was added to each well. Membrane-bound radioactivity was counted in a Microplate Scintillation and Luminescence Counter from Packard.
obtained in the presence of EC20 of mGluR2 agonist glutamate to determine positive allosteric modulation (PAM)—were generated using the Lexis software interface (developed at J&J). Data were calculated as % of the control glutamate response, defined as the maximal response that is generated upon addition of glutamate alone. Sigmoid concentration-response curves plotting these percentages versus the log concentration of the test compound were analyzed using non-linear regression analysis. The concentration producing half-maximal effect is then calculated as EC50.
All compounds were tested in presence of mGluR2 agonist, glutamate at a predetermined EC20 concentration, to determine positive allosteric modulation (GTPγS-PAM). pEC50 values were calculated from a concentration-response experiment of at least 10 concentrations.
(Binding of GTPγS marks nucleotide exchange on a G protein.)

The next series relates to male Wiga Wistar rats. Nature of the series: Conditioned avoidance response (CAR) test. The format is in vivo. Particulars: for ED50: Rattus norvegicus, po. An excerpt: The apparatus consisted of an inner box surrounded by an outer box. The inner box was composed of four walls of transparent, synthetic material (length×width×height: 30×30×30 cm), an open top, and a grid floor made of 15 pairs of iron bars (2 mm diameter; 6 mm inter-bar distance). Odd and even bars were connected with a source of alternative current (1.0 mA; Coulbourn Instruments Solid State Shocker/Distributor), which could be interrupted by a switch. The outer box was composed of the same material (length×width×height: 40×40×36 cm), also with an open top, with a distance of 5 cm between the inner and outer box on all sides. To decrease the amount of environmental stimuli, three walls of the outer box were made non-transparent. The front wall was left transparent to allow the necessary inspection of the animal during the test. The upper edge of the outer and inner box served as a target for the rats on which to jump with fore- and hind-paws, respectively.
From their arrival in the laboratory on the experimental day, male Wiga Wistar rats (230±30 g) were housed in individual cages provided with bedding material.
Latency to avoidance was recorded. The median avoidance response obtained over the three experimental sessions for each rat were used for further calculations.

For series [2], the system named is male NMRI mice. Nature of the series: d-Amphetamine-induced hyperlocomotion in mice. It counts as in vivo. Particulars: Mus musculus, d-amphetamine 5 mg/kg s.c., compound administered orally, read-out: ED50 Amp.-Inh. As for the experimental part: as §1, with “An infrared sensitive tube camera and a white light source (in arena: 4-7 LUX) were mounted to the ceiling above the observation chamber to record and input activity to a computer.” left out, “Data were then exported to data management systems for further analysis and reporting.” left out
Test compound or solvent was administered at a pre-defined time before measurement (standard: 30 min) to male NMRI mice that were challenged with d-amphetamine (5 mg/kg, s.c.) 30 min before measurement. Activity was measured for a period of 30 min.

The test system of a further series is rats. The series is described as follows: Sleep wake electroencephalography (SW-EEG) in rats. Conditions: 3 mg/kg, p.o. The format is in vivo. An excerpt: Sleep Wake Electroencephalography (SW-EEG) in Rats SW-EEG analyses are a highly sensitive read-out of a compound's central functional activity that may provide additional insight in the potential therapeutic application (i.e. via drug classification fingerprinting). […] Internal efforts have confirmed that this effect is mGlu2 receptor-mediated, i.e. is absent in mGlu2 KO mice. Sleep abnormalities are often associated with CNS disorders; as such, the potential use of mGlu2 modulators could also have benefit in the treatment of CNS disorders in which (REM) sleep aberrations are manifested. More specifically, the combination of a persistent reduction in REM occurrence and an increase in REM latency is one of the key features of the typical SW architecture fingerprint of most clinically active antidepressants.
We investigated the effects of oral administration of compounds according to the invention on SW organization in rats. The mGlu2/3 receptor agonist LY404039 was also evaluated to allow comparison.

[3] abbreviates: compound administered orally, criterion median avoidance latency >8 s, read-out: ED50 CAR-Inh.
Setting [4] is: not marked as oral, criterion median avoidance latency >8 s, read-out: ED50 CAR-Inh.

T1 sequence (Q14416 19-872): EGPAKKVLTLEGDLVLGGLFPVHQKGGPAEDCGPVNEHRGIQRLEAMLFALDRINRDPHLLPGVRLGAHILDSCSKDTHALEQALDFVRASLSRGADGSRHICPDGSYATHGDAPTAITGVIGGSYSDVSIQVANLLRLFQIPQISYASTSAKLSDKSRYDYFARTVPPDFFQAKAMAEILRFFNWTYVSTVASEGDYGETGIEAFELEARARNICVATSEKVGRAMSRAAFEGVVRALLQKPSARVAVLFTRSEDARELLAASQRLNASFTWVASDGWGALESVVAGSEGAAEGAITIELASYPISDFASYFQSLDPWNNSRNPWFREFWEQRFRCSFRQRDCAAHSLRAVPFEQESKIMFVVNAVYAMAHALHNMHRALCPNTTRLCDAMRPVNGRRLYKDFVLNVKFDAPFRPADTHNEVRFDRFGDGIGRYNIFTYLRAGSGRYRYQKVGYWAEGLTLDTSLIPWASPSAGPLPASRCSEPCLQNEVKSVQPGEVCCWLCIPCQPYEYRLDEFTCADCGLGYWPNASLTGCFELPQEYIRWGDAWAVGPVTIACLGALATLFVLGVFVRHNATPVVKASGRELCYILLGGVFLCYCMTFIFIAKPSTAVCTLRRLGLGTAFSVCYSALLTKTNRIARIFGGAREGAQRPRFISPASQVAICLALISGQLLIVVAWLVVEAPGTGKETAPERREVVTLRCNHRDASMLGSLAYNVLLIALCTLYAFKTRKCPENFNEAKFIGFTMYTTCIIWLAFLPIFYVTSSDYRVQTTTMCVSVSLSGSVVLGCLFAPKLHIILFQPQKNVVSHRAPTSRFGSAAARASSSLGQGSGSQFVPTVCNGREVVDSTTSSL

As to `Cc1cc(Oc2ccc(-c3ccn4c(CC(F)(F)F)nnc4c3Cl)cc2F)ccn1` [Co. No. 1, 7-[3-Fluoro-4-(2′-methyl-pyridin-4-yloxy)-phenyl]-8-chloro-3-(2,2,2-trifluoro-ethyl)-1,2,4-triazolo[4,3-a]pyridine], the melting point was found to be 130.1 °C. In the series on Male mice (C57BL/6), the “L.A.D. (lowest active dose) for significant (p<0.05) reduction of 2DG uptake in the hippocampus compared to memantine response” value was over 10 mg/kg. In addition, the 50% effective dose (ED50) in the series on male NMRI mice [1] came to 18.7 mg/kg. At human mGluR2 receptor, the EC50 is 209 nM. Also, the ED50 in the series with male Wiga Wistar rats (setting [3]) came out at 21.4 mg/kg. For the same compound, the ED50 in the series on male Wiga Wistar rats (setting [4]) stood at 12.3 mg/kg.

Turning to `Cc1cc(Oc2ccc(-c3ccn4c(CC5CC5)nnc4c3C(F)(F)F)cc2F)ccn1` [Co. No. 2, 7-[3-Fluoro-4-(2′-methyl-pyridin-4-yloxy)-phenyl]-8-trifluoromethyl-3-cyclopropylmethyl-1,2,4-triazolo[4,3-a]pyridine], the median effective dose (ED50) worked out at 28.3 mg/kg in the series with male NMRI mice [2], 12.3 mg/kg in the series on male NMRI mice [1], 21.4 mg/kg in the series with male Wiga Wistar rats (setting [3]) and 18.7 mg/kg with male Wiga Wistar rats (setting [4]). Moreover, in the series with Male mice (C57BL/6), the “L.A.D. (lowest active dose) for significant (p<0.05) reduction of 2DG uptake in the hippocampus compared to memantine response” value came out at 10 mg/kg. In addition, the EC50 on human mGluR2 receptor was 50.1 nM.

Turning to `Cc1ccc(Oc2ccc(-c3ccn4c(CC5CC5)nnc4c3C(F)(F)F)cc2F)c(C)n1` [Co. No. 4], the “L.A.D. (lowest active dose) for significant (p<0.05) reduction of 2DG uptake in the hippocampus compared to memantine response” value with Male mice (C57BL/6) was “≦10 mg/kg”. The ED50 is 15.2 mg/kg in the series on male NMRI mice [1]; 20 mg/kg in the series on male Wiga Wistar rats (compound administered orally, estimated ED50 (n = 3 per dose; 4-fold separation between doses), read-out: ED50 CAR-Inh. (estimated)); 7.9 mg/kg in the series with male Wiga Wistar rats (not marked as oral, estimated ED50 (n = 3 per dose; 4-fold separation between doses), read-out: ED50 CAR-Inh. (estimated)). Moreover, the EC50 on human mGluR2 receptor is 10.2 nM.

For `Cc1cc(Oc2ccc(-c3ccn4c(CC5CC5)nnc4c3Cl)cc2F)ccn1` [Co. No. 15], in the series on Male mice (C57BL/6), the “L.A.D. (lowest active dose) for significant (p<0.05) reduction of 2DG uptake in the hippocampus compared to memantine response” value is given as “≦10 mg/kg”. Moreover, the “ED50 PCP-Inh.” value in the series with male NMRI mice [1] worked out at 20 mg/kg. At human mGluR2 receptor, the “GTPγS -hR2 PAM pEC50” value is 6.65. Also, the “ED50 CAR-Inh.” value in the series with male Wiga Wistar rats (compound administered orally, criterion median avoidance latency >8 s) is on record as “≧40*^ mg/kg”.

For the compound `N[C@@]1(C(=O)O)CS(=O)(=O)[C@H]2[C@H](C(=O)O)[C@H]21` [LY404039, reference compound], the “effect on memantine-induced brain glucose metabolism / 2DG uptake (in words)” value with Male mice (C57BL/6) (mouse brain) is reported as “inhibited”. The “effect on REM sleep (in words)” value in the series on rats is reported as “affect REM sleep”.

Broadly, the ED50 is the midpoint of the dose-response relation. Broadly, the melting point is the temperature of the solid-liquid transition.
